According to patent US20240423888A1, “COSMETIC AND/OR DERMATOLOGICAL COMPOSITION COMPRISING AT LEAST ONE MEROCYANINE AND AT LEAST ASCORBIC ACID AND/OR A DERIVATIVE THEREOF” (L'OREAL, priority 2021, published 2024):

Tested on: normal human dermal fibroblasts (NHDF)
Assay: Procollagen I assay (ELISA) in culture medium of normal human dermal fibroblasts exposed to UVA, formulas spread on PMMA plates placed over the cells
Assay type: cell-based
Settings: for Mean procollagen 1 (normalized by Cyquant signal and relative to the unexposed Control): 48 hours after last exposure
Description: The efficacy of a combination in accordance with the invention and outside the invention is tested by assaying procollagen 1 in a culture medium of normal human dermal fibroblasts exposed to UVA.
• Normal human dermal fibroblasts (NHDF) obtained from a mammary plasty. • Culture: 37° C., 5% CO2. • Culture medium and test medium: MEM (Gibco 21090-022) containing 10% foetal calf serum (FCS) (Gibco 10270-098), 2 mM L-glutamine (Gibco 25030-024), 1 mM sodium pyruvate (Gibco 11360-039), 1× non-essential amino acids (Gibco 11140-035), 250 ng/ml amphotericin B (Gibco 15290-018) and penicillin/streptomycin 20 U/20 […].
The normal human dermal fibroblasts were seeded in complete MEM medium and incubated for 72 h at 37° C. and 5% CO2.
The cells are then exposed for 3 consecutive days to a dose of 25 J/cm^2 of total UVA using an Oriel solar simulator fitted with a WG335 filter. Depending on the conditions, a PMMA plate to which the formula comprising the screening agents according to the invention or outside the invention or the Placebo formula is applied is placed over the cells during exposure. After each exposure, the cells are treated or not with ascorbic acid (10 μM) diluted in the culture medium. The cells are then incubated at 37° C., 5% CO2. 48 hours after the last exposure, a cell viability test (XTT Roche cat. 11465015001) is performed, and the number of cells in each well is evaluated by means of a Cyquant assay (Molecular Probes C7026). The media are collected and a procollagen I assay is performed by ELISA (Abcam ab210966). Each experimental condition is performed in duplicate or triplicate and at least three independent experiments are performed.

[1] = 25 J/cm^2 total UVA on 3 consecutive days, formula 1.3 mg/cm^2 on PMMA plate over the cells, ascorbic acid 10 μM where given

O=C1O[C@H]([C@@H](O)CO)C(O)=C1O [VitC, ascorbic acid]
relative % relative to the control 0 J (0 J/cm^2 (unexposed), ascorbic acid 10 μM): +260.5% | Mean procollagen 1 (normalized by Cyquant signal and relative to the unexposed Control) (0 J/cm^2 (unexposed), ascorbic acid 10 μM, unexposed Control = 100): 360.5 | relative % relative to the control 0 J [1]: +29.7% | Mean procollagen 1 (normalized by Cyquant signal and relative to the unexposed Control) [1]: 129.7 | secretion of procollagen 1 by the fibroblasts (ascorbic acid tested at 10 μM, result in words): significantly increased | ability of ascorbic acid to induce procollagen 1 secretion (effect of UVA, result in words): significantly reduced
